{"source": "ChEMBL document CHEMBL4507263", "about": "“Data for DCP probe BAY-474” (2021)", "key": {"[1]": {"biological_target": "Calcium/calmodulin-dependent protein kinase type II subunit beta (Homo sapiens) (UniProt Q13554)", "assay": "CaMKIIbeta (h) Millipore kinase activity assay", "settings": "Compound concentration 1.0 uM"}, "[2]": {"biological_target": "CDK7/Cyclin H/MNAT1 (Homo sapiens) (UniProt P51946+P50613+P51948)", "assay": "CDK7/cyclinH/MAT1 (h) Millipore kinase activity assay", "type": "protein-complex assay", "settings": "Compound concentration 1.0 uM"}, "[3]": {"biological_target": "Ephrin type-A receptor 2 (Homo sapiens) (UniProt P29317)", "assay": "EphA2 (h) Millipore kinase activity assay", "settings": "Compound concentration 1.0 uM"}, "[4]": {"biological_target": "Ephrin type-A receptor 8 (Homo sapiens) (UniProt P29322)", "sequence (P29322 whole entry)": "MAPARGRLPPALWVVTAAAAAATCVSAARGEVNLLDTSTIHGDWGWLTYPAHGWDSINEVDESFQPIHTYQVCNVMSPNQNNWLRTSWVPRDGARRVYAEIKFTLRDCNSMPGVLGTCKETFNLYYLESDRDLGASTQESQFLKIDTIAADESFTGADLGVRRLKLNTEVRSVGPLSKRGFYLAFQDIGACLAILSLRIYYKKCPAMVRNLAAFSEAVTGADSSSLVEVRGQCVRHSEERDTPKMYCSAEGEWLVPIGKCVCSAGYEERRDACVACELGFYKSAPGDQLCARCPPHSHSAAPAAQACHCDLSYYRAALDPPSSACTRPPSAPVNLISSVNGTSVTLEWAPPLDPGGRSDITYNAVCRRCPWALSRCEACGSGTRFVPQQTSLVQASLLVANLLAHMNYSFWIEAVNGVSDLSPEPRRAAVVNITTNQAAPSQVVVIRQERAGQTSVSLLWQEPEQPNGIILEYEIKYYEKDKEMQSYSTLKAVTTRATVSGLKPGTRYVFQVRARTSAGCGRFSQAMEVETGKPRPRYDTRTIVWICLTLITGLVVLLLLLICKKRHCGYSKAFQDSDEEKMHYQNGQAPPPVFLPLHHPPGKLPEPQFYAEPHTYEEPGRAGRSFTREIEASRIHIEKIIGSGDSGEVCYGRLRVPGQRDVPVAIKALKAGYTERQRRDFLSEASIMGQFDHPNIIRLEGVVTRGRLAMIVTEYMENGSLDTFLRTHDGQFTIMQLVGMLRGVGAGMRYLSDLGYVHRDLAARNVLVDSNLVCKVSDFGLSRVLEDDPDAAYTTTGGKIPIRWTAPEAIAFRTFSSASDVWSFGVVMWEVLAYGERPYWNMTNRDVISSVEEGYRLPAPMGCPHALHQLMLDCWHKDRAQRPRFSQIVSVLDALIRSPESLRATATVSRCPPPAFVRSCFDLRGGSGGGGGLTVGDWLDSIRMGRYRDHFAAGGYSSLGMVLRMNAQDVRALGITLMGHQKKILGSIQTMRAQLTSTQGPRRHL", "assay": "EphA8 (h) Millipore kinase activity assay", "settings": "Compound concentration 1.0 uM"}, "[5]": {"biological_target": "Fibroblast growth factor receptor 2 (Homo sapiens) (UniProt P21802)", "assay": "FGFR2 (h) Millipore kinase activity assay", "settings": "Compound concentration 1.0 uM"}, "[6]": {"biological_target": "Insulin receptor (Homo sapiens) (UniProt P06213)", "assay": "IR (h) Millipore kinase activity assay", "settings": "Compound concentration 1.0 uM"}, "[7]": {"biological_target": "Mitogen-activated protein kinase 8 (Homo sapiens) (UniProt P45983)", "sequence (P45983 whole entry)": "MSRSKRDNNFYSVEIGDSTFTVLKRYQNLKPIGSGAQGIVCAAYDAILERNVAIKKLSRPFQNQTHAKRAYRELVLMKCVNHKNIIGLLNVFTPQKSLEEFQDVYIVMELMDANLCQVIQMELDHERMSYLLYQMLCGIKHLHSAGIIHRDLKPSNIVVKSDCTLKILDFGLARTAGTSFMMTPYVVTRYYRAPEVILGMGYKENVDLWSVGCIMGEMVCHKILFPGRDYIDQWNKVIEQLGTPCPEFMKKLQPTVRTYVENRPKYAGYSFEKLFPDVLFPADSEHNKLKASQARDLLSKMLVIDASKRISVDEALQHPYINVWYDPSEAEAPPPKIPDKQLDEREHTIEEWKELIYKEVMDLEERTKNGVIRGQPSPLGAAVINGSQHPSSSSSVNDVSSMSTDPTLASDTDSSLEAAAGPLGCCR", "assay": "JNK1alpha1 (h) Millipore kinase activity assay", "settings": "Compound concentration 1.0 uM"}, "[8]": {"biological_target": "Serine/threonine-protein kinase Nek6 (Homo sapiens) (UniProt Q9HC98)", "assay": "NEK6 (h) Millipore kinase activity assay", "settings": "Compound concentration 1.0 uM"}, "[9]": {"biological_target": "SRSF protein kinase 1 (Homo sapiens) (UniProt Q96SB4)", "assay": "SRPK1 (h) Millipore kinase activity assay", "settings": "Compound concentration 1.0 uM"}, "[10]": {"biological_target": "Serine/threonine-protein kinase TAO2 (Homo sapiens) (UniProt Q9UL54)", "assay": "TAO2 (h) Millipore kinase activity assay", "settings": "Compound concentration 1.0 uM"}, "[11]": {"biological_target": "Platelet-activating factor receptor (Homo sapiens) (UniProt P25105)", "assay": "Inhibition of Platelet Activating Factor (PAF) at 10 µM in the Eurofins-Panlabs radioligand binding assay (Eurofins_assay_265010)", "settings": "Compound concentration 10.0 uM"}, "[12]": {"organism": "Oryctolagus cuniculus", "assay": "Inhibition of Purinergic P2X at 10 µM in the Eurofins-Panlabs radioligand binding assay (Eurofins_assay_268700)", "type": "protein assay", "settings": "Compound concentration 10.0 uM"}, "[13]": {"biological_target": "Sodium-dependent serotonin transporter (Homo sapiens) (UniProt P31645)", "settings": "Compound concentration 10.0 uM"}, "[14]": {"system": "Tyrosine-protein kinase ABL1 (Homo sapiens), P00519 [F317L]", "settings": "Compound concentration 1000.0 nM"}, "[15]": {"system": "Tyrosine-protein kinase ABL1 (Homo sapiens), P00519 [H396P]", "settings": "Compound concentration 1000.0 nM"}, "[16]": {"biological_target": "Tyrosine-protein kinase receptor UFO (Homo sapiens) (UniProt P30530)", "settings": "Compound concentration 1000.0 nM"}, "[17]": {"biological_target": "Cyclin-dependent kinase 19 (Homo sapiens) (UniProt Q9BWU1)", "settings": "Compound concentration 1000.0 nM"}, "[18]": {"biological_target": "Cyclin-dependent kinase 2 (Homo sapiens) (UniProt P24941)", "settings": "Compound concentration 1000.0 nM"}, "[19]": {"biological_target": "Cyclin-dependent kinase 3 (Homo sapiens) (UniProt Q00526)", "sequence (Q00526 whole entry, looked up)": "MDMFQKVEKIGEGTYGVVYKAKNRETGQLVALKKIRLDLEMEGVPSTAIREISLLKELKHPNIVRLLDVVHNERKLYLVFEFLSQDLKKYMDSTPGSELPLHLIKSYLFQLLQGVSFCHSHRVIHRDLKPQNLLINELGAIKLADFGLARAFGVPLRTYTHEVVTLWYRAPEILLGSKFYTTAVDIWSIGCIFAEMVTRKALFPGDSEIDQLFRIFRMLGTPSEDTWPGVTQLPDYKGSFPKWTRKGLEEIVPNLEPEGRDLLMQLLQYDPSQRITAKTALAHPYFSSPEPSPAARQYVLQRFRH", "settings": "Compound concentration 1000.0 nM"}, "[20]": {"biological_target": "Dual specificity protein kinase CLK2 (Homo sapiens) (UniProt P49760)", "settings": "Compound concentration 1000.0 nM"}, "[21]": {"biological_target": "Serine/threonine-protein kinase DCLK1 (Homo sapiens) (UniProt O15075)", "settings": "Compound concentration 1000.0 nM"}, "[22]": {"biological_target": "Ephrin type-A receptor 3 (Homo sapiens) (UniProt P29320)", "settings": "Compound concentration 1000.0 nM"}, "[23]": {"biological_target": "Ephrin type-A receptor 8 (Homo sapiens) (UniProt P29322)", "settings": "Compound concentration 1000.0 nM"}, "[24]": {"system": "Receptor-type tyrosine-protein kinase FLT3 (Homo sapiens), P36888 [R834Q]", "settings": "Compound concentration 1000.0 nM"}, "[25]": {"biological_target": "Rhodopsin kinase GRK7 (Homo sapiens) (UniProt Q8WTQ7)", "sequence (Q8WTQ7 whole entry)": "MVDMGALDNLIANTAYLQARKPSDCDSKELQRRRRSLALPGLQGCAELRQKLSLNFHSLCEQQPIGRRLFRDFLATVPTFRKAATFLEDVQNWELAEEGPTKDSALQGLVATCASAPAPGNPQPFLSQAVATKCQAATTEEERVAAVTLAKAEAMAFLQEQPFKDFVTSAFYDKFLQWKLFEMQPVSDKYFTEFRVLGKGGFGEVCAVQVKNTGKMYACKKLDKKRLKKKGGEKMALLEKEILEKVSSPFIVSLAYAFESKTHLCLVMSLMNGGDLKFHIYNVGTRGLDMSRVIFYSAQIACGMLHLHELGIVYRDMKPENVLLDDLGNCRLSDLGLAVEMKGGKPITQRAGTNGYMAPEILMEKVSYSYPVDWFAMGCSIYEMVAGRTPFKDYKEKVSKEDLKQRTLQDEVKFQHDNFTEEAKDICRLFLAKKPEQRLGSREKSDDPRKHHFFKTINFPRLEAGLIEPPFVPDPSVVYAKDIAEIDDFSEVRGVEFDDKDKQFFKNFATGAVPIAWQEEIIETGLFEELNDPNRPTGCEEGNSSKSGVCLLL", "settings": "Compound concentration 1000.0 nM"}, "[26]": {"biological_target": "Interleukin-1 receptor-associated kinase 3 (Homo sapiens) (UniProt Q9Y616)", "settings": "Compound concentration 1000.0 nM"}, "[27]": {"biological_target": "Tyrosine-protein kinase JAK2 (Homo sapiens) (UniProt O60674)", "settings": "Compound concentration 1000.0 nM"}, "[28]": {"system": "Mast/stem cell growth factor receptor Kit (Homo sapiens), P10721 [D816V]", "sequence (P10721 whole entry D816V)": "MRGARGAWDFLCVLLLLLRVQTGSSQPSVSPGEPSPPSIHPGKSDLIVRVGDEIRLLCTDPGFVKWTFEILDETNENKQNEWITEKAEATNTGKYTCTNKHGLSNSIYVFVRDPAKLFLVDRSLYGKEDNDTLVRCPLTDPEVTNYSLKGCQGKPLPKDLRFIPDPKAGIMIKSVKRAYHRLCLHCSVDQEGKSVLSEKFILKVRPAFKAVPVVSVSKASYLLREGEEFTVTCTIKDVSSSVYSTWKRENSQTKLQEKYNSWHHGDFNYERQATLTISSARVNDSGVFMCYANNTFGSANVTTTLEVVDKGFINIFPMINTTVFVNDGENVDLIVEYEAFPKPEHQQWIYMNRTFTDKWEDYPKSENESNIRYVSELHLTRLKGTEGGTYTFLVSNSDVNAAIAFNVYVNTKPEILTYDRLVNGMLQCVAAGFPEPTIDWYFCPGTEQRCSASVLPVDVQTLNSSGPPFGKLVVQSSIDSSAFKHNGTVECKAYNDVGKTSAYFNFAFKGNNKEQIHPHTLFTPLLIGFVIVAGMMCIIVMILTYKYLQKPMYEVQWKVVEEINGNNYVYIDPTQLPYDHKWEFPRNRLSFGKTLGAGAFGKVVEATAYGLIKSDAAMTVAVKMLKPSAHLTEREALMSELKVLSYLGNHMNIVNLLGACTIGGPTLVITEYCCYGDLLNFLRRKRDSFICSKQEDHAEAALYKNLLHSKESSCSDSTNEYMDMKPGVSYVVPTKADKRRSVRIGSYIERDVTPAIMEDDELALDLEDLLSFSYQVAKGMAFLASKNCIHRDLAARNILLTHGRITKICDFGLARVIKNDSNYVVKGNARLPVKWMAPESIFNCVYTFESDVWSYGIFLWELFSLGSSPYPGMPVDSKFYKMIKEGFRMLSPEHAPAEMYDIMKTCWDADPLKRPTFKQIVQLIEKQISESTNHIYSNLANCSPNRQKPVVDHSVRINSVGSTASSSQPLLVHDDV", "settings": "Compound concentration 1000.0 nM"}, "[29]": {"system": "Mast/stem cell growth factor receptor Kit (Homo sapiens), P10721 [L576P]", "sequence (P10721 whole entry L576P)": "as the sequence (P10721 whole entry D816V) above, with L576P, V816D counted along it", "settings": "Compound concentration 1000.0 nM"}, "[30]": {"biological_target": "Mitogen-activated protein kinase kinase kinase 4 (Homo sapiens) (UniProt Q9Y6R4)", "settings": "Compound concentration 1000.0 nM"}, "[31]": {"biological_target": "Serine/threonine-protein kinase MARK2 (Homo sapiens) (UniProt Q7KZI7)", "settings": "Compound concentration 1000.0 nM"}, "[32]": {"biological_target": "Microtubule-associated serine/threonine-protein kinase 1 (Homo sapiens) (UniProt Q9Y2H9)", "settings": "Compound concentration 1000.0 nM"}, "[33]": {"biological_target": "Dual specificity mitogen-activated protein kinase kinase 6 (Homo sapiens) (UniProt P52564)", "settings": "Compound concentration 1000.0 nM"}, "[34]": {"biological_target": "Myosin light chain kinase, smooth muscle (Homo sapiens) (UniProt Q15746)", "settings": "Compound concentration 1000.0 nM"}, "[35]": {"biological_target": "Serine/threonine-protein kinase 38-like (Homo sapiens) (UniProt Q9Y2H1)", "sequence (Q9Y2H1 2-464 limits assumed)": "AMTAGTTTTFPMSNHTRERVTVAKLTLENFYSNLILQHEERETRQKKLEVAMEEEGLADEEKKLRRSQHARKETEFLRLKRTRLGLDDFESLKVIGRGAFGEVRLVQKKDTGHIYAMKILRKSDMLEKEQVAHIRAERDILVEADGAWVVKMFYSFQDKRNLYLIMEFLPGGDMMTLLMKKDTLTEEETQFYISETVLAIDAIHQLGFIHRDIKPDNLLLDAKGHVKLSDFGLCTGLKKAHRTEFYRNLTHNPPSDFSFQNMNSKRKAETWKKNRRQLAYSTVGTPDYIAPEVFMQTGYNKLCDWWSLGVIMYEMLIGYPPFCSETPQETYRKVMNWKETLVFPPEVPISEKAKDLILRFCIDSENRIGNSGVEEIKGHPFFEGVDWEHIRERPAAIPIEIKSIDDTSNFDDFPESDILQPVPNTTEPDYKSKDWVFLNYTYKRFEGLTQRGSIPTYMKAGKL", "settings": "Compound concentration 1000.0 nM"}, "[36]": {"biological_target": "Mitogen-activated protein kinase 12 (Homo sapiens) (UniProt P53778)", "settings": "Compound concentration 1000.0 nM"}, "[37]": {"biological_target": "Cyclin-dependent kinase 2 homolog (Plasmodium falciparum (isolate 3D7)) (UniProt P61075)", "settings": "Compound concentration 1000.0 nM"}, "[38]": {"system": "Phosphatidylinositol 4,5-bisphosphate 3-kinase catalytic subunit alpha isoform (Homo sapiens), P42336 [M1043I]", "settings": "Compound concentration 1000.0 nM"}, "[39]": {"biological_target": "Phosphatidylinositol 5-phosphate 4-kinase type-2 beta (Homo sapiens) (UniProt P78356)", "settings": "Compound concentration 1000.0 nM"}, "[40]": {"biological_target": "Protein kinase C theta type (Homo sapiens) (UniProt Q04759)", "settings": "Compound concentration 1000.0 nM"}, "[41]": {"biological_target": "Ribosomal protein S6 kinase alpha-1 (Homo sapiens) (UniProt Q15418)", "settings": "Compound concentration 1000.0 nM"}, "[42]": {"biological_target": "Non-receptor tyrosine-protein kinase TYK2 (Homo sapiens) (UniProt P29597)", "sequence (P29597 whole entry)": "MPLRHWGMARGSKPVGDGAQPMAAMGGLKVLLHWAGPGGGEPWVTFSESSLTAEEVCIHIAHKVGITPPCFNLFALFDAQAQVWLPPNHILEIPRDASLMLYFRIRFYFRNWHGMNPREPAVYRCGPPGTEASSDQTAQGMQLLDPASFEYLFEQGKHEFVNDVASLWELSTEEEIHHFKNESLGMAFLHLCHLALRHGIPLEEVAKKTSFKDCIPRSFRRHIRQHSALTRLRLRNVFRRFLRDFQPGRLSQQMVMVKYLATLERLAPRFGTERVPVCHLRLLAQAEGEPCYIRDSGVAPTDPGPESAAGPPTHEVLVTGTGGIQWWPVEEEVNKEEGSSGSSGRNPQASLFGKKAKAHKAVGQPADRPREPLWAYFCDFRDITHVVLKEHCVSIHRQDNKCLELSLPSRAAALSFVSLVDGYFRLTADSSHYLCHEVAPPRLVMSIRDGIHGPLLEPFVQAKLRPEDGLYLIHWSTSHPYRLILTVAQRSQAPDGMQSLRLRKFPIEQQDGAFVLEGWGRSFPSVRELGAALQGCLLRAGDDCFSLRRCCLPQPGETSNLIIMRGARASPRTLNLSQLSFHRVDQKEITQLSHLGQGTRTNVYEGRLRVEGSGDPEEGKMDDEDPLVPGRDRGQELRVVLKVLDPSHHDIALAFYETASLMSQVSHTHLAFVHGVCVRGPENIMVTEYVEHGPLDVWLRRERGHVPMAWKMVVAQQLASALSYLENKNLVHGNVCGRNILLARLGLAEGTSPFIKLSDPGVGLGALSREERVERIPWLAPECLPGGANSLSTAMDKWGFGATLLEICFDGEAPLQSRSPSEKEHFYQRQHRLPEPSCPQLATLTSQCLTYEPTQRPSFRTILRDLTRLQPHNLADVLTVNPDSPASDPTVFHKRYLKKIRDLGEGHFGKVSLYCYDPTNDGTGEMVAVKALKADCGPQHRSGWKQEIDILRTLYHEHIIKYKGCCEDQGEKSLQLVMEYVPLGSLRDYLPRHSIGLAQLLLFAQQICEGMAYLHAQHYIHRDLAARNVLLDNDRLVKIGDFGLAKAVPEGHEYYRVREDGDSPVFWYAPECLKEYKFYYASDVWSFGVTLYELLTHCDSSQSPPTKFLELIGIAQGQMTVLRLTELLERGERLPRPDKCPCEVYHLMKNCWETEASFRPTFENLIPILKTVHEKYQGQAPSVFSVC", "settings": "Compound concentration 1000.0 nM"}, "[43]": {"biological_target": "Wee1-like protein kinase 2 (Homo sapiens) (UniProt P0C1S8)", "settings": "Compound concentration 1000.0 nM"}, "[44]": {"biological_target": "Serine/threonine-protein kinase 32A (Homo sapiens) (UniProt Q8WU08)", "settings": "Compound concentration 1000.0 nM"}, "[45]": {"biological_target": "Serine/threonine-protein kinase 32B (Homo sapiens) (UniProt Q9NY57)", "settings": "Compound concentration 1000.0 nM"}}}
{"molecule": "CC1=C(C#N)C(c2ccc3[nH]nc(C)c3c2)C(C#N)=C(C)N1", "note": "[BAY-474]", "values": [{"measurement": "inhibition", "setting": "[1]", "value": 4, "unit": "%"}, {"measurement": "inhibition", "setting": "[2]", "value": -1, "unit": "%"}, {"measurement": "inhibition", "setting": "[3]", "value": 13, "unit": "%"}, {"measurement": "inhibition", "setting": "[4]", "value": -1, "unit": "%"}, {"measurement": "inhibition", "setting": "[5]", "value": 17, "unit": "%"}, {"measurement": "inhibition", "setting": "[6]", "value": -9, "unit": "%"}, {"measurement": "inhibition", "setting": "[7]", "value": -8, "unit": "%"}, {"measurement": "inhibition", "setting": "[8]", "value": -10, "unit": "%"}, {"measurement": "inhibition", "setting": "[9]", "value": 11, "unit": "%"}, {"measurement": "inhibition", "setting": "[10]", "value": -2, "unit": "%"}, {"measurement": "inhibition", "setting": "[11]", "value": 6, "unit": "%"}, {"measurement": "inhibition", "setting": "[12]", "value": -1, "unit": "%"}, {"measurement": "inhibition", "setting": "[13]", "value": -3.41, "unit": "%"}]}
{"molecule": "CC1=C(C#N)[C@@H](c2ccc3[nH]nc(C)c3c2)C(C#N)=C(c2ccc(Cl)cc2)N1", "note": "[BAY-827]", "values": [{"measurement": "residual activity", "setting": "[14]", "value": 94.2, "unit": "%"}, {"measurement": "residual activity", "setting": "[15]", "value": 100, "unit": "%"}, {"measurement": "residual activity", "setting": "[16]", "value": 100, "unit": "%"}, {"measurement": "residual activity", "setting": "[17]", "value": 66.8, "unit": "%"}, {"measurement": "residual activity", "setting": "[18]", "value": 100, "unit": "%"}, {"measurement": "residual activity", "setting": "[19]", "value": 100, "unit": "%"}, {"measurement": "residual activity", "setting": "[20]", "value": 100, "unit": "%"}, {"measurement": "residual activity", "setting": "[21]", "value": 79.2, "unit": "%"}, {"measurement": "residual activity", "setting": "[22]", "value": 100, "unit": "%"}, {"measurement": "residual activity", "setting": "[23]", "value": 100, "unit": "%"}, {"measurement": "residual activity", "setting": "[24]", "value": 100, "unit": "%"}, {"measurement": "residual activity", "setting": "[25]", "value": 100, "unit": "%"}, {"measurement": "residual activity", "setting": "[26]", "value": 96.4, "unit": "%"}, {"measurement": "residual activity", "setting": "[27]", "value": 100, "unit": "%"}, {"measurement": "residual activity", "setting": "[28]", "value": 100, "unit": "%"}, {"measurement": "residual activity", "setting": "[29]", "value": 100, "unit": "%"}, {"measurement": "residual activity", "setting": "[30]", "value": 67.9, "unit": "%"}, {"measurement": "residual activity", "setting": "[31]", "value": 100, "unit": "%"}, {"measurement": "residual activity", "setting": "[32]", "value": 100, "unit": "%"}, {"measurement": "residual activity", "setting": "[33]", "value": 100, "unit": "%"}, {"measurement": "residual activity", "setting": "[34]", "value": 100, "unit": "%"}, {"measurement": "residual activity", "setting": "[35]", "value": 100, "unit": "%"}, {"measurement": "residual activity", "setting": "[36]", "value": 58.6, "unit": "%"}, {"measurement": "residual activity", "setting": "[37]", "value": 92.5, "unit": "%"}, {"measurement": "residual activity", "setting": "[38]", "value": 25.2, "unit": "%"}, {"measurement": "residual activity", "setting": "[39]", "value": 69.3, "unit": "%"}, {"measurement": "residual activity", "setting": "[40]", "value": 100, "unit": "%"}, {"measurement": "residual activity", "setting": "[41]", "value": 100, "unit": "%"}, {"measurement": "residual activity", "setting": "[42]", "value": 100, "unit": "%"}, {"measurement": "residual activity", "setting": "[43]", "value": 100, "unit": "%"}, {"measurement": "residual activity", "setting": "[44]", "value": 100, "unit": "%"}, {"measurement": "residual activity", "setting": "[45]", "value": 100, "unit": "%"}]}
